Laboratory results from ChEMBL document CHEMBL3853345, “Gabosines P and Q, new carbasugars from Streptomyces sp. and their α-glucosidase inhibitory activity” (Bioorg Med Chem Lett, 2016).

Experiments:
[1] = Inhibition of alpha-glucosidase (unknown origin) assessed as reduction in PNP release using PNPG as substrate preincubated for 10 mins followed by substrate addition measured after 40 mins by spectrophotometric method; design: species or system Homo sapiens
Homo sapiens = species on record: Homo sapiens; assay: Potency index, ratio of acarbose IC50 to compound IC50 for alpha-glucosidase (unknown origin)

| IC50 [1] | Ratio IC50 (Homo sapiens) | SMILES |
| --- | --- | --- |
| 9.07 µM | 70 | CC(=O)O[C@H]1C=C(CO)C(=O)[C@H](O)[C@H]1O |
| 663 µM | – | C[C@H]1O[C@H](O[C@H]2[C@H](O)[C@@H](O)[C@@H](O[C@H]3[C@H](O)[C@@H](O)C(O)O[C@@H]3CO)O[C@@H]2CO)[C@H](O)[C@@H](O)[C@@H]1N[C@H]1C=C(CO)[C@@H](O)[C@H](O)[C@H]1O (stereo partly drawn) [ACARBOSE] |
